Assay results from patent publication US20230024302A1, “2,3,5-TRISUBSTITUTED PYRAZOLO[1,5-A]PYRIMIDINE COMPOUNDS” (Arcus Biosciences, Inc., priority 2019, published 2023).
Where two headings read alike, the source gives them in different places.

Legend:
PI3Kγ (p120γ) = molecular target: T1, PI3Kγ (p120γ) (Homo sapiens, UniProt P48736); test: Inhibition of PI3K kinase activity (ADP Glo), PI3Kγ; conditions: read-out: biochemical potency (PI3Kγ IC50)
T1 construct: purchased Promega V1761
How it was run: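 Recombinant p120γ (8 nM, 2× stock) was preincubated with compound for 1 h at rt in HEPES pH 7.4, NaCl, MgCl2 and 0.05% BSA. Reaction was started with PIP2 (0.1 mg/ml, 2×) and ATP (50 μM, 2×) and ran 60 min at rt. ADP formed was read by ADP-Glo luminescence, and IC50 came from a 4-parameter fit.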

PI3Kγ = molecular target: T2, PI3Kγ (Homo sapiens, UniProt P48736); test: PI3Kγ cellular assay in THP-1 cells (AKT pS473 AlphaLISA); type: cell-based
T2 construct: host or cells: THP-1
T2 sequence (P48736 whole entry): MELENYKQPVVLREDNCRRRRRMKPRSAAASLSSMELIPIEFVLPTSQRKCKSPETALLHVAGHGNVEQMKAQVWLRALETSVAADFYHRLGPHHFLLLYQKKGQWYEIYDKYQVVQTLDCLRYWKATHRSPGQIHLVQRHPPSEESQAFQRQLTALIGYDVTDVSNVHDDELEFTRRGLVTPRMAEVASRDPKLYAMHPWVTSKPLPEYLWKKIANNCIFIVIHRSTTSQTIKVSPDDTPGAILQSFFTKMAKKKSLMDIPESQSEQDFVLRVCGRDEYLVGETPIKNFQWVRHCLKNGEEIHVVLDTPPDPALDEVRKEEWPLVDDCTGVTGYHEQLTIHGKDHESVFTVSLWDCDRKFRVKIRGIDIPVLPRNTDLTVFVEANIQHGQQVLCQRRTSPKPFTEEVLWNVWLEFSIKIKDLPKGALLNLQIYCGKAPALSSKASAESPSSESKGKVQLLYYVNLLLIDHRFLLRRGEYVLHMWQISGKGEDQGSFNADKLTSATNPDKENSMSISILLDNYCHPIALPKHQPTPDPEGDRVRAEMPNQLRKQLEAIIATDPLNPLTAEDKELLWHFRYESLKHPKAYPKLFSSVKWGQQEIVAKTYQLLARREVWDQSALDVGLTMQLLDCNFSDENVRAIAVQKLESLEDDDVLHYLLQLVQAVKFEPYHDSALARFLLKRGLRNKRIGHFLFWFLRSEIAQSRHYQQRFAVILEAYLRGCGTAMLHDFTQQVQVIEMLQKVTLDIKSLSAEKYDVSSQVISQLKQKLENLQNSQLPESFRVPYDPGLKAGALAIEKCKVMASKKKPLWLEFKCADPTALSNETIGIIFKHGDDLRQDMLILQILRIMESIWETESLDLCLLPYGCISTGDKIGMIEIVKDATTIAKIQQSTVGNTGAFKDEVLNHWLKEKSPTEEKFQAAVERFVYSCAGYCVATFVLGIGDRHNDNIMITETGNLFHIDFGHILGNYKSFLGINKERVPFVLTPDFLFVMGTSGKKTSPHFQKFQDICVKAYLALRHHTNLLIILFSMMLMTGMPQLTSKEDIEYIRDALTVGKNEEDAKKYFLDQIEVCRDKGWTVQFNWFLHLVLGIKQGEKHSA
How it was run: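 Serum-starved THP-1 cells (1.8×10^5/well, serum-free DMEM) treated with compounds from 4 nM to 30 μM in 2% DMSO, then stimulated and lysed.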

[1] = Table 2, rhMCP-1 stimulated AKT pS473, read-out: cellular potency (PI3Kγ IC50)

T1 sequence (P48736 whole entry): as above

SMILES	IC50 (PI3Kγ (p120γ); Table 1, p120γ) [nM]	IC50 (PI3Kγ; Table 1, rhMCP-1 stimulated AKT pS473, read-out: cellular potency (PI3Kγ IC50)) [nM]	IC50 (PI3Kγ (p120γ); Table 2, p120γ) [nM]	IC50 (PI3Kγ; [1]) [nM]
C[C@@H](C1CC1)N1Cc2cc(-c3ccn4nc(N)c(C(=O)N[C@H]5CC[C@@](C)(O)CC5)c4n3)cc(C(C)(C)O)c2C1=O [Example 171, 2-Amino-5-{2-[(1S)-1-cyclopropylethyl]-7-(2-hydroxypropan-2-yl)-1-oxo-2,3-dihydro-1H-isoindol-5-yl}-N-[cis-4-hydroxy-4-methylcyclohexyl]pyrazolo[1,5-a]pyrimidine-3-carboxamide]	< 100	< 100		
Cc1cc(-c2ccn3nc(N)c(C(=O)N[C@H]4CC[C@H](O)CC4)c3n2)cc2c1C(=O)N([C@@H](C)C1CC1)C2 [Example 172]			< 100	100 to 1000
Cc1cc(-c2ccn3nc(N)c(C(=O)N[C@@H](C)c4ccncc4)c3n2)cc2c1C(=O)N([C@@H](C)C1CC1)C2 [Example 173]			< 100	100 to 1000
Cc1cc(-c2ccn3nc(N)c(C(=O)N4CCC4CO)c3n2)cc2c1C(=O)N(C(C)C1CC1)C2 (centres unmarked) [Example 174]			< 100	100 to 1000
Cc1cc(-c2ccn3nc(N)c(C(=O)N[C@H](C)c4cnn(C)c4)c3n2)cc2c1C(=O)N([C@@H](C)C1CC1)C2 [Example 175]			< 100	100 to 1000
Cc1cc(-c2ccn3nc(N)c(C(=O)N[C@@H]4CCOC4)c3n2)cc2c1C(=O)N([C@@H](C)C1CC1)C2 [Example 176]			< 100	100 to 1000
Cc1cc(-c2ccn3nc(N)c(C(=O)N[C@H]4CCOC4)c3n2)cc2c1C(=O)N([C@@H](C)C1CC1)C2 [Example 177]			< 100	100 to 1000
Cc1cc(-c2ccn3nc(N)c(C(=O)N[C@@H](C)c4nccs4)c3n2)cc2c1C(=O)N([C@@H](C)C1CC1)C2 [Example 178]			< 100	100 to 1000
Cc1cc(-c2ccn3nc(N)c(C(=O)NC4CCNCC4)c3n2)cc2c1C(=O)N([C@@H](C)C1CC1)C2 [Example 179]			< 100	100 to 1000
Cc1cc(-c2ccn3nc(N)c(C(=O)NC4COC4)c3n2)cc2c1C(=O)N([C@@H](C)C1CC1)C2 [Example 180]			< 100	100 to 1000
Cc1cc(-c2ccn3nc(N)c(C(=O)NC4CCOCC4)c3n2)cc2c1C(=O)N([C@@H](C)C1CC1)C2 [Example 181]			< 100	100 to 1000
CO[C@H]1C[C@H](NC(=O)c2c(N)nn3ccc(-c4cc(C)c5c(c4)CN([C@@H](C)C4CC4)C5=O)nc23)C1 [Example 182]			< 100	100 to 1000
CC[C@H](CO)NC(=O)c1c(N)nn2ccc(-c3cc(C)c4c(c3)CN([C@@H](C)C3CC3)C4=O)nc12 [Example 183]			< 100	100 to 1000
Cc1cc(-c2ccn3nc(N)c(C(=O)N[C@H]4CC[C@H](N)CC4)c3n2)cc2c1C(=O)N([C@@H](C)C1CC1)C2 [Example 184]			< 100	100 to 1000
Cc1cc(-c2ccn3nc(N)c(C(=O)N[C@H]4C[C@H](N)C4)c3n2)cc2c1C(=O)N([C@@H](C)C1CC1)C2 [Example 185]			< 100	100 to 1000
Cc1cc(-c2ccn3nc(N)c(C(=O)NCCO)c3n2)cc2c1C(=O)N([C@@H](C)C1CC1)C2 [Example 186]			< 100	100 to 1000
